Several values for one entry are separate records, joined by “and”; a condition that tells them apart may be missing. Identical values can stand only once. Counter-ions that a name gives are not always drawn. Like-named read-outs stand apart in the source and are kept apart here.

From patent US11655246B2, “Aminothiazole compounds as inhibitors of CTPS1” (STEP PHARMA S.A.S., priority 2017, dated 2023) come the findings set out here.

The assay addresses T1, human CTPS1 (Homo sapiens, UniProt P17812).
T1 construct: purchased Proteros biostructures GmbH
T1 sequence (P17812 1-591): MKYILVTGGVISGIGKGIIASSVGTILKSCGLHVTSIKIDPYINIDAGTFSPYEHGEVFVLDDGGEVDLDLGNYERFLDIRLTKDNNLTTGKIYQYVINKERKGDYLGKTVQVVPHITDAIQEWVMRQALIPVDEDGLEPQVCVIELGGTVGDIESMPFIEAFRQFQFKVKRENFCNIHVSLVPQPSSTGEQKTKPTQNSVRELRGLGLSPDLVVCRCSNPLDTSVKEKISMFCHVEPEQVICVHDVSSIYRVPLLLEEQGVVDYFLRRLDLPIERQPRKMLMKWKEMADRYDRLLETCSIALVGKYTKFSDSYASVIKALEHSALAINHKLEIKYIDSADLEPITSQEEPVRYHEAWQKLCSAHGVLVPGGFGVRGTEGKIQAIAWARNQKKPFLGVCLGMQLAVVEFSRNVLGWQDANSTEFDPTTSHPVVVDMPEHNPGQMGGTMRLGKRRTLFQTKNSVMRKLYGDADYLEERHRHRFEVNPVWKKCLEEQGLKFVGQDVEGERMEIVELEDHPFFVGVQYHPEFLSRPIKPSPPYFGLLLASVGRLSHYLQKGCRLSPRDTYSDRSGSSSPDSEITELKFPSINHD
The assay is described as follows: Human CTPS1 enzyme inhibition (ADP-Glo Max assay). The class given is biochemical. As to conditions: read-out: CTPS1 (Human CTPS1 Enzyme Inhibition data grouped by potency range). Put shortly: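 ADP-Glo Max luminescence detection of ATP-to-ADP conversion by the enzyme, in 50 mM Tris, 10 mM MgCl2, 0.01% Tween-20, pH 8.0, with 2 mM L-cysteine added fresh. Enzyme preincubated with compound 10 minutes at 25° C. Percentage inhibition calculated per compound concentration.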

[1] abbreviates: Table 18, additional potency data, 25° C.

On to `Cc1sc(NS(=O)(=O)C2CC2)nc1C(C)(C)C(=O)Nc1ccc(-c2cncc(C(F)(F)F)n2)cc1F` [T354, 2-(2-(cyclopropanesulfonamido)-5-methylthiazol-4-yl)-N-(2-fluoro-4-(6-(trifluoromethyl)pyrazin-2-yl)phenyl)-2-methylpropanamide], for which the IC50 under setting [1] is 100 to 1000 nM.

`O=C(Nc1ccc(-c2ccccc2)cc1)C1CCCc2sc(NS(=O)(=O)C3CC3)nc21` (stereo not shown) [T83]: where the note is “Table 17, 25° C.”, the IC50 was in the range of 1000 to 10000 nM.

For `CC(C)C(C(=O)Nc1ccc(-c2cccnc2)cc1)c1csc(NS(=O)(=O)C2CC2)n1` (single isomer, unassigned) [T14, 2-(2-(cyclopropanesulfonamido)thiazol-4-yl)-3-methyl-N-(4-(pyridin-3-yl)phenyl)butanamide.HCl], under “Table 17, 25° C.”, the IC50 is 100 to 1000 nM.

As to `CCC(C(=O)Nc1ccc(-c2cncc(OC(F)F)c2)cn1)c1csc(NS(=O)(=O)C2CC2)n1` (stereo not shown) [T186], where the note is “Table 17, 25° C.”, the IC50 is < 100 nM. For `CCC(C(=O)Nc1ccc(-c2cccnc2)cc1)c1csc(NS(=O)(=O)C2CC2)n1` (single isomer, unassigned) [T6, 2-(2-(cyclopropanesulfonamido)thiazol-4-yl)-N-(4-(pyridin-3-yl)phenyl)butanamide.HCl], for the setting “Table 17, 25° C.”, the IC50 is 100 to 1000 nM. As for `CCC(C(=O)Nc1ccc(-c2cccnc2)cc1F)c1csc(NS(=O)(=O)C2CC2)n1` (stereo not shown) [T201], under “Table 17, 25° C.”, the IC50 was < 100 nM. On the same count and under the same terms, with `CCC(C(=O)Nc1ccc(-c2cncc(C(F)(F)F)n2)cc1)c1csc(NS(=O)(=O)C2CC2)n1` (single isomer, unassigned) [T106] the figure was < 100 nM. With `CCOc1cncc(-c2ccc(NC(=O)C(C)(C)c3nc(NS(=O)(=O)C4CC4)sc3C)cc2)n1` [T317], for the setting “Table 17, 25° C.”, the IC50 lay in the range of 100 to 1000 nM. On to `CCC(C(=O)Nc1ccc(-c2cccnc2)cc1)c1csc(NS(=O)(=O)C2CC2)n1` (single isomer, unassigned) [T7, 2-(2-(cyclopropanesulfonamido)thiazol-4-yl)-N-(4-(pyridin-3-yl)phenyl)butanamide.HCl], for which, where the note is “Table 17, 25° C.”, the IC50 was < 100 nM.

`COC(C(=O)Nc1ccc(-c2cncc(F)c2)cc1C(F)(F)F)c1csc(NS(=O)(=O)C2CC2)n1` (stereo not shown) [T447]: the IC50 under setting [1] is < 100 nM. For the molecule `COc1cncc(-c2ccc(NC(=O)C(OC)c3csc(NS(=O)(=O)C4CC4)n3)cc2)n1` (single isomer, unassigned) [T107], the IC50 (Table 17, 25° C.) is < 100 nM. Consider `CC(C)C(C(=O)Nc1ccc(-c2cccnc2)cc1)c1csc(NS(=O)(=O)C2CC2)n1` (racemic) [T12, 2-(2-(cyclopropanesulfonamido)thiazol-4-yl)-3-methyl-N-(4-(pyridin-3-yl)phenyl)butanamide], for which the IC50 (Table 17, 25° C.) was in the range of 100 to 1000 nM. Same read-out and setting: for `CCC(C(=O)Nc1ccc(-c2cncc(Cl)n2)cn1)c1csc(NS(=O)(=O)C2CC2)n1` (stereo not shown) [T187] the value was < 100 nM; for `CCC(C(=O)Nc1ccc(-c2cncc(C(F)(F)F)n2)cn1)c1csc(NS(=O)(=O)C2CC2)n1` (stereo not shown) [T175], < 100 nM. For the molecule `CC(C)(C(=O)Nc1ccc(-c2cncc(OCC3CCCC3)n2)cc1)c1csc(NS(=O)(=O)C2CC2)n1` [T378, N-(4-(6-(cyclopentylmethoxy)pyrazin-2-yl)phenyl)-2-(2-(cyclopropanesulfonamido)thiazol-4-yl)-2-methylpropanamide], the IC50 under setting [1] was in the range of 1000 to 10000 nM. With `COC(C(=O)Nc1ccc(-c2cncc(C(F)(F)F)n2)cc1F)c1csc(NS(=O)(=O)C2CC2)n1` (single isomer, unassigned) [T459], the IC50 under setting [1] was < 100 nM.

Turning to `CCC(CC)(C(=O)Nc1ccc(-c2cncc(Cl)n2)cc1)c1csc(NS(=O)(=O)C2CC2)n1` [T160], for the setting “Table 17, 25° C.”, the IC50 was < 100 nM.

In the case of `CCOc1cncc(-c2ccc(NC(=O)C(OC)c3csc(NS(=O)(=O)C4CC4)n3)c(OC(F)(F)F)c2)n1` (stereo not shown) [T454], the IC50 under setting [1] is < 100 nM. Turning to `CCS(=O)(=O)Nc1nc(C(C)(C)C(=O)Nc2ccc(-c3cncc(OC(C)C)n3)cc2F)cs1` [T383, 2-(2-(ethylsulfonamido)thiazol-4-yl)-N-(2-fluoro-4-(6-isopropoxypyrazin-2-yl)phenyl)-2-methylpropanamide], the IC50 under setting [1] was < 100 nM. Regarding `Cc1ncccc1-c1ccc(NC(=O)Cc2csc(NS(=O)(=O)C3CC3)n2)cc1` [T100], the IC50 (Table 17, 25° C.) was in the range of 100 to 1000 nM. As for `CC(C)(C(=O)Nc1ccc(-c2cncc(C(F)(F)F)n2)cc1C(F)(F)F)c1csc(NS(=O)(=O)C2CC2)n1` [T346, 2-(2-(cyclopropanesulfonamido)thiazol-4-yl)-2-methyl-N-(2-(trifluoromethyl)-4-(6-(trifluoromethyl)pyrazin-2-yl)phenyl)propanamide], the IC50 under setting [1] was in the range of 100 to 1000 nM.

Turning to `CCC(C(=O)Nc1ccc(-c2cncc(C(C)(C)OC)n2)cc1F)c1csc(NS(=O)(=O)C2CC2)n1` (stereo not shown) [T403, 2-(2-(cyclopropanesulfonamido)thiazol-4-yl)-N-(2-fluoro-4-(6-(2-methoxypropan-2-yl)pyrazin-2-yl)phenyl)butanamide], the IC50 under setting [1] lay in the range of 100 to 1000 nM. As to `CC(C)(C(=O)Nc1ccc(-c2cncc(C(F)(F)F)n2)cc1)c1csc(NS(=O)(=O)C2CCCC2)n1` [T334, 2-(2-(cyclopentanesulfonamido)thiazol-4-yl)-2-methyl-N-(4-(6-(trifluoromethyl)pyrazin-2-yl)phenyl)propanamide], the IC50 under setting [1] lay within 100 to 1000 nM. Take `CC(C(=O)Nc1ccc(-c2cccnc2)nc1)c1csc(NS(=O)(=O)C2CC2)n1` (stereo not shown) [T27]: the IC50 (Table 17, 25° C.) fell in the range of 100 to 1000 nM.

Turning to `CCOc1cncc(-c2ccc(NC(=O)C(NC(C)=O)c3csc(NS(=O)(=O)C4CC4)n3)cc2)n1` (stereo not shown) [T326, 2-acetamido-2-(2-(cyclopropanesulfonamido)thiazol-4-yl)-N-(4-(6-ethoxypyrazin-2-yl)phenyl)acetamide], the IC50 under setting [1] was < 100 nM. In the case of `CCC(C(=O)Nc1ccc(-c2ccccc2)cc1)c1csc(NS(=O)(=O)C2CC2)n1` (stereo not shown) [T85], the IC50 (Table 17, 25° C.) fell in the range of 100 to 1000 nM. With `COCCC(C(=O)Nc1ccc(-c2cncc(C(F)(F)F)n2)cn1)c1csc(NS(=O)(=O)C2CC2)n1` (stereo not shown) [T59], the IC50 (Table 17, 25° C.) was < 100 nM. As to `N#Cc1cncc(-c2ccc(NC(=O)C3CCc4sc(NS(=O)(=O)C5CC5)nc43)cc2)c1` (stereo not shown) [T217], for the setting “Table 17, 25° C.”, the IC50 was < 100 nM. With `CCOc1cncc(-c2ccc(NC(=O)C(OC)c3csc(NS(=O)(=O)C4CC4)n3)c(F)c2)n1` (stereo not shown) [T409, 2-(2-(cyclopropanesulfonamido)thiazol-4-yl)-N-(4-(6-ethoxypyrazin-2-yl)-2-fluorophenyl)-2-methoxyacetamide], the IC50 under setting [1] was < 100 nM. `CCS(=O)(=O)Nc1nc(C(C)(C)C(=O)Nc2ccc(-c3cncc(C#N)c3)cc2)cs1` [T384, N-(4-(5-cyanopyridin-3-yl)phenyl)-2-(2-(ethylsulfonamido)thiazol-4-yl)-2-methylpropanamide]: the IC50 under setting [1] was in the range of 100 to 1000 nM. Consider `CCOc1cc(NC(=O)C(C)(C)c2csc(NS(=O)(=O)C3CC3)n2)ccc1-c1cncc(Cl)c1` [T372, N-(4-(5-chloropyridin-3-yl)-3-ethoxyphenyl)-2-(2-(cyclopropanesulfonamido)thiazol-4-yl)-2-methylpropanamide], for which, under setting [1], the IC50 is 100 to 1000 nM.

As for `CCOc1cncc(-c2ccc(NC(=O)C(CC)c3csc(NS(=O)(=O)C4CC4)n3)cc2)c1` (stereo not shown) [T96], where the note is “Table 17, 25° C.”, the IC50 is < 100 nM.

Take `CCC(C(=O)Nc1ccc(-c2cncc(OCC(F)(F)F)c2)cn1)c1csc(NS(=O)(=O)C2CC2)n1` (stereo not shown) [T185]: the IC50 (Table 17, 25° C.) is < 100 nM and 100 to 1000 nM.

Consider `CC(C)(C(=O)Nc1ccc(-c2cccnc2)cc1)c1csc(NS(=O)(=O)C2CCCC2)n1` [T333, 2-(2-(cyclopentanesulfonamido)thiazol-4-yl)-2-methyl-N-(4-(pyridin-3-yl)phenyl)propanamide], for which the IC50 under setting [1] lay in the range of 1000 to 10000 nM. As to `CC(C)(C(=O)Nc1ccc(-c2cncc(C#N)c2)cc1C(F)(F)F)c1csc(NS(=O)(=O)C2CC2)n1` [T344, N-(4-(5-cyanopyridin-3-yl)-2-(trifluoromethyl)phenyl)-2-(2-(cyclopropanesulfonamido)thiazol-4-yl)-2-methylpropanamide], under setting [1], the IC50 was < 100 nM. With `CC(C)(C(=O)Nc1ccc(-c2cnccn2)cc1F)c1csc(NS(=O)(=O)C2CC2)n1` [T274], for the setting “Table 17, 25° C.”, the IC50 was < 100 nM. On to `CCOc1cncc(-c2cnc(NC(=O)C(OC)c3csc(NS(=O)(=O)C4CC4)n3)c(F)c2)n1` (stereo not shown) [T445], for which, under setting [1], the IC50 is < 100 nM.

Regarding `CCOc1cncc(-c2ccc(NC(=O)C(c3csc(NS(=O)(=O)C4CC4)n3)N(C)C)cc2)n1` (stereo not shown) [T328, 2-(2-(cyclopropanesulfonamido)thiazol-4-yl)-2-(dimethylamino)-N-(4-(6-ethoxypyrazin-2-yl)phenyl)acetamide], the IC50 under setting [1] is < 100 nM. `CCOc1cncc(-c2ccc(NC(=O)C(OC)c3csc(NS(=O)(=O)C4CC4)n3)cc2)n1` (racemic) [T410, 2-(2-(cyclopropanesulfonamido)thiazol-4-yl)-N-(4-(6-ethoxypyrazin-2-yl)phenyl)-2-methoxyacetamide]: the IC50 under setting [1] is < 100 nM. Take `COCCS(=O)(=O)Nc1nc(C(C)(C)C(=O)Nc2ccc(-c3cncc(C(F)(F)F)n3)cn2)cs1` [T332, 2-(2-((2-methoxyethyl)sulfonamido)thiazol-4-yl)-2-methyl-N-(5-(6-(trifluoromethyl)pyrazin-2-yl)pyridin-2-yl)propanamide]: the IC50 under setting [1] is 100 to 1000 nM.
